Paper PMC11345841, “Exploring 2-Sulfonylpyrimidine Warheads as Acrylamide Surrogates for Targeted Covalent Inhibition: A BTK Story” (Journal of Medicinal Chemistry, 2024)
Read-outs that look alike come from different tables or passages of the source.

How the values were obtained:
Assay in all cases: KINOMEscan ScanTK
Assay type in all cases: binding
[1] = target: T1, RET(V804M) (Homo sapiens, UniProt P07949, V804M)
T1 construct: purchased Eurofins DiscoverX KINOMEscan (scanTK)

[2] = target: T2, INSR (Homo sapiens, UniProt P06213)
T2 construct: purchased Eurofins DiscoverX KINOMEscan (scanTK)
T2 sequence (P06213 28-1382): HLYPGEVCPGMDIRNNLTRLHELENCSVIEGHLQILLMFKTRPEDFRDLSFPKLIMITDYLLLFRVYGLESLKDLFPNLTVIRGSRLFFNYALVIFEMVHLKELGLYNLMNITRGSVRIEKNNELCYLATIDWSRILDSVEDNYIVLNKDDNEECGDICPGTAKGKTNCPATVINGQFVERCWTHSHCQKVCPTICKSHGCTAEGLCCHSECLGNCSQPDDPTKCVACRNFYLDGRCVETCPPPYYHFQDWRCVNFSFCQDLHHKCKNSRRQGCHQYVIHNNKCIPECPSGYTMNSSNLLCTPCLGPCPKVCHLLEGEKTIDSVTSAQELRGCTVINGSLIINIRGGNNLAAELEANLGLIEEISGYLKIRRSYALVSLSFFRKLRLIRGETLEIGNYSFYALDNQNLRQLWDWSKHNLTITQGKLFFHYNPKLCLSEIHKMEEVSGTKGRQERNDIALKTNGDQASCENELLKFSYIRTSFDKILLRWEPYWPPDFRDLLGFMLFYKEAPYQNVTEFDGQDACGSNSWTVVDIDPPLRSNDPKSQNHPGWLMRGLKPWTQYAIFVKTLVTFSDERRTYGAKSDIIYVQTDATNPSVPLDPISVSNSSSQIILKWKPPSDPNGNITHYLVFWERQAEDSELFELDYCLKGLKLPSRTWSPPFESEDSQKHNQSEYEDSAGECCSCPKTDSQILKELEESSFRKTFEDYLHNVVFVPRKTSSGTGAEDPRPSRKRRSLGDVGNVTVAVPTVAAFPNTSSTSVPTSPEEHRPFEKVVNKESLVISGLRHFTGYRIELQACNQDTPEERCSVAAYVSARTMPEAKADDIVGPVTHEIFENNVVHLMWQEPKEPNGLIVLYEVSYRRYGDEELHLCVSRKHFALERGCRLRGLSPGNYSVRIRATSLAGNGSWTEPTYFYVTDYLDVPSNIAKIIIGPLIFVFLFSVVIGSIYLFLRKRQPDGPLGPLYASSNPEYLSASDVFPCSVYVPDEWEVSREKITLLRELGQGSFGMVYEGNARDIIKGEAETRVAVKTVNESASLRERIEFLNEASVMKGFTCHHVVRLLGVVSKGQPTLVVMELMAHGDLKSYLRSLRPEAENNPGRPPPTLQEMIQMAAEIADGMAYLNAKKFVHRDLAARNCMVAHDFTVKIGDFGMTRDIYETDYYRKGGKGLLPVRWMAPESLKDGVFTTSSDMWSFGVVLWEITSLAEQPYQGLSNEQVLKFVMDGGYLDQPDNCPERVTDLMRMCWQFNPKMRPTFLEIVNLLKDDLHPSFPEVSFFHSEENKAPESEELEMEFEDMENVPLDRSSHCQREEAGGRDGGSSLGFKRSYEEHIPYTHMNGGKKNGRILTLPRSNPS

[3] = target: T3, PDGFRB (Homo sapiens, UniProt P09619)
T3 construct: purchased Eurofins DiscoverX KINOMEscan (scanTK)
T3 sequence (P09619 33-1106): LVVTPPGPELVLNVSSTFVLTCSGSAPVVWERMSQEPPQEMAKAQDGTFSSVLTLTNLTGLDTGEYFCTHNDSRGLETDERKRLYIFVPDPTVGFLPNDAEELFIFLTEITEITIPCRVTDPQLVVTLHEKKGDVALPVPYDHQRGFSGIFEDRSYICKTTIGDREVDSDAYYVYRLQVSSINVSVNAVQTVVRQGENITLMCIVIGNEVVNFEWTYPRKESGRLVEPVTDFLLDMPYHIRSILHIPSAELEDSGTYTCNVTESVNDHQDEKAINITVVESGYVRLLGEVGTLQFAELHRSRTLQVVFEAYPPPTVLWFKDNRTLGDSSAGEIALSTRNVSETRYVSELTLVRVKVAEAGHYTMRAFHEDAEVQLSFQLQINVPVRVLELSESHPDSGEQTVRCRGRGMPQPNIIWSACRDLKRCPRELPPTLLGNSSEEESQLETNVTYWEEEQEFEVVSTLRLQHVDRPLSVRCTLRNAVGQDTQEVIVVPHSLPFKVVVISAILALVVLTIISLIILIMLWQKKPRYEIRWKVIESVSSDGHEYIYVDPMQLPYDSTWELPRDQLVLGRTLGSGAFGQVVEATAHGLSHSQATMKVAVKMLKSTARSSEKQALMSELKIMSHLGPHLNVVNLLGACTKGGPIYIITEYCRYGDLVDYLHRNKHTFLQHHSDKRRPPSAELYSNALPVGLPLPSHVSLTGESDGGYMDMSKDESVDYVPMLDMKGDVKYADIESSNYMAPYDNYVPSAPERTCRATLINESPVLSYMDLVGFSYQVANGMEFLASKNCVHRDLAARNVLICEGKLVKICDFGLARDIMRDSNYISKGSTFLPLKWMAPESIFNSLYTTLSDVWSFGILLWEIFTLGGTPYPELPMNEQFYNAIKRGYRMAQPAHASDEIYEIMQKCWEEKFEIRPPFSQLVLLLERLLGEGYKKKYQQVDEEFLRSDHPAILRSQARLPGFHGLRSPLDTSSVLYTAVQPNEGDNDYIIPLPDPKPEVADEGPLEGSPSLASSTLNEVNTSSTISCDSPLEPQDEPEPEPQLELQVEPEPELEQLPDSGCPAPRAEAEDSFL

[4] = target: T4, ERBB2 (Homo sapiens, UniProt P04626); settings: for remaining binding at 1 µM / difference in %Control versus compound Ib at 1 µM: ERBB2
T4 construct: purchased Eurofins DiscoverX KINOMEscan (scanTK)

[5] = target: T5, EPHB2 (Homo sapiens, UniProt P29323)
T5 construct: purchased Eurofins DiscoverX KINOMEscan (scanTK)
T5 sequence (P29323 19-1055): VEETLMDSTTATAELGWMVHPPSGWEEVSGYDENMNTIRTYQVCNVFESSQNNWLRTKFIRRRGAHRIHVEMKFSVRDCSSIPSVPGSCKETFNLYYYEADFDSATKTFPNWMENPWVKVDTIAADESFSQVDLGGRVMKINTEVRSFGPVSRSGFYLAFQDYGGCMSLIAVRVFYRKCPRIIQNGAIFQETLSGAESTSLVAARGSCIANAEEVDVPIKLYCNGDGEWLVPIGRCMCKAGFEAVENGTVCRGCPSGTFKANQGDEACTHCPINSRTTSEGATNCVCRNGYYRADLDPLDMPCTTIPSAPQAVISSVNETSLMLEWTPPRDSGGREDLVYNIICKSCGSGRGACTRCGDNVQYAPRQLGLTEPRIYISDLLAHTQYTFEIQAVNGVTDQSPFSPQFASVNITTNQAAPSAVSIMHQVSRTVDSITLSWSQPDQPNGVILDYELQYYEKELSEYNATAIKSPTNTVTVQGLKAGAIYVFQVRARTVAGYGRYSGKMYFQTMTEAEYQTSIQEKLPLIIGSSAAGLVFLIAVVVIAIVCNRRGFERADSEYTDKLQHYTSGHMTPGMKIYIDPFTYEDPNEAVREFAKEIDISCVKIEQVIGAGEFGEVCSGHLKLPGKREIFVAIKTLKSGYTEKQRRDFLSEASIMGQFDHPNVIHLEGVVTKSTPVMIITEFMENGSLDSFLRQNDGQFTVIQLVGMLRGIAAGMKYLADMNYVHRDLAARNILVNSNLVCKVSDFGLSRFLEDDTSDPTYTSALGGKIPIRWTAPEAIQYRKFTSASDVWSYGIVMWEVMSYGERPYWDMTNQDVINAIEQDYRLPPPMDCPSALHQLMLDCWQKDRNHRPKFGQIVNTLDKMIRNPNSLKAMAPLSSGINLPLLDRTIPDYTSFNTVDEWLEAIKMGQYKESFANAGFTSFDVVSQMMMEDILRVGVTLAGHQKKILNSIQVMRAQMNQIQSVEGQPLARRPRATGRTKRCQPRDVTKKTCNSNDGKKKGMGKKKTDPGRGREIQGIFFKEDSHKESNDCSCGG

[6] = target: T6, FLT3 (Homo sapiens, UniProt P36888)
T6 construct: purchased Eurofins DiscoverX KINOMEscan (scanTK)
T6 sequence (P36888 27-993): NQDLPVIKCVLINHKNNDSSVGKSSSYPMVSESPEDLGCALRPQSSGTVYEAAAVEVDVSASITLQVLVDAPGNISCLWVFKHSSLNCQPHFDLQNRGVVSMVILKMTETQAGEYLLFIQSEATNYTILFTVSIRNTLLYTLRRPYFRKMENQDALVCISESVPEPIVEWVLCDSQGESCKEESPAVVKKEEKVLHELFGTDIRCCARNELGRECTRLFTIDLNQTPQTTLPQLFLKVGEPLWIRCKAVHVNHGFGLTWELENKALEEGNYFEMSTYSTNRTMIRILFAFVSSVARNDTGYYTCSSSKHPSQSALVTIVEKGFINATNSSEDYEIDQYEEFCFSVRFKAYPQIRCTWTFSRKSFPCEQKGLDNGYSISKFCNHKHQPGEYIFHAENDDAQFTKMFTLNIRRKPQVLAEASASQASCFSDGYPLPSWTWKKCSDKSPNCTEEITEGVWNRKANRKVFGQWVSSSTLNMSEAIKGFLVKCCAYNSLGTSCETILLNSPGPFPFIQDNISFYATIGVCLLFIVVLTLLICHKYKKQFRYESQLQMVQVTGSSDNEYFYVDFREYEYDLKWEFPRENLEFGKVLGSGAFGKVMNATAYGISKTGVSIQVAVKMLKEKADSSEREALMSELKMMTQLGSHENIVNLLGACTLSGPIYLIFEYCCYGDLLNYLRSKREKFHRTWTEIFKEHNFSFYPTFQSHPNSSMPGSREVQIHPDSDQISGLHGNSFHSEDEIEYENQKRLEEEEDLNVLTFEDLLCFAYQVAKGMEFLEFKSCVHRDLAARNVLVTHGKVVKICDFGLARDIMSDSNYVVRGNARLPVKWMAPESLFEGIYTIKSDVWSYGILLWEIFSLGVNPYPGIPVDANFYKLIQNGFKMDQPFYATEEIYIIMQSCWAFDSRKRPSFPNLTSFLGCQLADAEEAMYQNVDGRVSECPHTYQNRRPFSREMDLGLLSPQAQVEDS

[7] = target: T7, KIT(V559D) (Homo sapiens, UniProt P10721, V559D)
T7 construct: purchased Eurofins DiscoverX KINOMEscan (scanTK)
T7 sequence (P10721 26-976 V559D): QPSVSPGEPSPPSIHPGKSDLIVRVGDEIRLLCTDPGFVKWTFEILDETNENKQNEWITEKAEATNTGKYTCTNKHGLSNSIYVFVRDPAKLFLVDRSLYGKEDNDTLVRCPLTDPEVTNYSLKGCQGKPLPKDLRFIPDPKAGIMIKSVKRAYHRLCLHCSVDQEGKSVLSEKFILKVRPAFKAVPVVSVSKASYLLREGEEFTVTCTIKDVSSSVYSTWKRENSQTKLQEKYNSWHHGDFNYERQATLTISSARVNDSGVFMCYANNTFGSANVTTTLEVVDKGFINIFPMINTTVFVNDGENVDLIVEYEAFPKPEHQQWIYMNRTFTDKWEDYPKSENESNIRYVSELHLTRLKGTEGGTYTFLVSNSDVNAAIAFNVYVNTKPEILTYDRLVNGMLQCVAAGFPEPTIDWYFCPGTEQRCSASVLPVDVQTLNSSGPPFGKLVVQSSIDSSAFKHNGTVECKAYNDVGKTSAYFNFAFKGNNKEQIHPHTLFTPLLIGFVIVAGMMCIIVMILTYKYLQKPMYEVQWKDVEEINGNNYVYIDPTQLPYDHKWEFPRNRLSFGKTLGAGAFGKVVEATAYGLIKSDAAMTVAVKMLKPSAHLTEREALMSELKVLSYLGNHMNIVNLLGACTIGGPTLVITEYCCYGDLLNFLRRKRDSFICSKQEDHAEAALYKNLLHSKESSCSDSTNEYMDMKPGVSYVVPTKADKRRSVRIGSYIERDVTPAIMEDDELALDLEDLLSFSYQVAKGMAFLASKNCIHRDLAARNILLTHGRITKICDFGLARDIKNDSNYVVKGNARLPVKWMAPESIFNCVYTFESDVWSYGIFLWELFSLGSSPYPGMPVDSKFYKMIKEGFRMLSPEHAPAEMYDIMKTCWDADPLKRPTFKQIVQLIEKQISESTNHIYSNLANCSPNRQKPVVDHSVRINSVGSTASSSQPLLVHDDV

[8] = tested on: FLT3(ITD); settings: for %Control / % difference (compound - Ib %Control): @1000nM
[9] = target: T8, ABL1(M351T)-phosphorylated (Homo sapiens, UniProt P00519, M351T)
T8 construct: purchased Eurofins DiscoverX KINOMEscan (scanTK)

[10] = target: T9, ABL1(Q252H)-phosphorylated (Homo sapiens, UniProt P00519, Q252H); settings: for difference in %Control versus reference Ib at 1 µM: read-out: % difference (compound - Ib %Control)
T9 construct: purchased Eurofins DiscoverX KINOMEscan (scanTK)

T1 sequence (P07949 29-1114 V804M): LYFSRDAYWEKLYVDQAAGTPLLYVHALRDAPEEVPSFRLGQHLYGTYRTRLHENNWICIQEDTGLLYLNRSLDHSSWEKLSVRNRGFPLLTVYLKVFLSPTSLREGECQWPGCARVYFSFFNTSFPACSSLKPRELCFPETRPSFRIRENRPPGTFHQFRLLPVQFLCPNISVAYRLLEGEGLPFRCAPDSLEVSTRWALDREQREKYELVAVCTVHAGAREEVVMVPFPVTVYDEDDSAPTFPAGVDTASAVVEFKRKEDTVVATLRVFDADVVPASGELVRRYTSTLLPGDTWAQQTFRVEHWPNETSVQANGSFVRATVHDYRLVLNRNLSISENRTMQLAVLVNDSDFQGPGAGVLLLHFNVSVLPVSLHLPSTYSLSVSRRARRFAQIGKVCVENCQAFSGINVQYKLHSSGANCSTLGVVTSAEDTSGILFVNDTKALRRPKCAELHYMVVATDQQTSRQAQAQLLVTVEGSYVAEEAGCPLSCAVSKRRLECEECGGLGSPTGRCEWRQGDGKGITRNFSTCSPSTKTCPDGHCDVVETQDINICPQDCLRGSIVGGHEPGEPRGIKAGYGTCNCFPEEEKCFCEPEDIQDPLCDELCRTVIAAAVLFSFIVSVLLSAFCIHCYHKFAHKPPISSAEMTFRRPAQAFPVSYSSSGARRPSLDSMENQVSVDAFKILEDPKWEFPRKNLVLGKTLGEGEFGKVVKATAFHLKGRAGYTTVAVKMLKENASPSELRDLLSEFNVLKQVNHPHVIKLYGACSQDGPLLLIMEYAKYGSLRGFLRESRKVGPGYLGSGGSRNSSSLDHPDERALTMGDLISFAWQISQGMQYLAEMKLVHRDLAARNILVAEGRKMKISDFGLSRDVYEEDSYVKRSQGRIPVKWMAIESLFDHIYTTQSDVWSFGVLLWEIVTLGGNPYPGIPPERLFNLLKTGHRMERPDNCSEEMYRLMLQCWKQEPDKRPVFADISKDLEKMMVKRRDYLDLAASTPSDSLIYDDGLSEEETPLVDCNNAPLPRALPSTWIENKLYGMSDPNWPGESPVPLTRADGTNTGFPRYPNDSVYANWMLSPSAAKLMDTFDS

| remaining binding at 1 µM ([1]; @1000nM, read-out: %Control) [%] | remaining binding at 1 µM ([1]; read-out: %Control @1000nM) [%] | remaining binding at 1 µM ([2]; @1000nM, read-out: %Control) [%] | remaining binding at 1 µM ([2]; read-out: %Control @1000nM) [%] | remaining binding at 1 µM ([3]; @1000nM, read-out: %Control) [%] | remaining binding at 1 µM ([3]; read-out: %Control @1000nM) [%] | remaining binding at 1 µM ([4]; @1000nM, read-out: %Control) [%] | remaining binding at 1 µM ([4]; read-out: %Control @1000nM) [%] | remaining binding at 1 µM ([5]; @1000nM, read-out: %Control) [%] | remaining binding at 1 µM ([5]; read-out: %Control @1000nM) [%] | remaining binding at 1 µM ([6]; @1000nM, read-out: %Control) [%] | remaining binding at 1 µM ([6]; read-out: %Control @1000nM) [%] | remaining binding at 1 µM ([7]; @1000nM, read-out: %Control) [%] | remaining binding at 1 µM ([7]; read-out: %Control @1000nM) [%] | difference in %Control versus compound Ib at 1 µM ([2]; @1000nM) [%] | difference in %Control from compound Ib at 1 µM ([9]; @1000nM) [%] | remaining binding at 1 µM ([9]; @1000nM, read-out: %Control) [%] | remaining binding at 1 µM ([9]; read-out: %Control @1000nM) [%] | Structure (SMILES) | %Control @1000nM [8] [%] | %Control [8] [%] | other results |
| --- | --- | --- | --- | --- | --- | --- | --- | --- | --- | --- | --- | --- | --- | --- | --- | --- | --- | --- | --- | --- | --- |
| 90 | 90 | 95 | 95 | 68 | 68 | 41 | 41 | 91 | 91 | 80 | 80 | 75 | 75 | -5 | 1 | 66 | 66 | COC(=O)c1cnc(S(C)(=O)=O)nc1N1CCCC(n2nc(-c3ccc(Oc4ccccc4)cc3)c3c(N)ncnc32)C1 (centres unmarked) [Compound 8b, Methyl 4-(3-(4-Amino-3-(4-phenoxyphenyl)-1H-pyrazolo[3,4-d]pyrimidin-1-yl)piperidin-1-yl)-2-(methylsulfonyl)pyrimidine-5-carboxylate] | 100 | 100 | difference in %Control versus reference Ib at 1 µM ([10]; @1000nM): -2%; remaining binding at 1 µM ([10]; @1000nM, read-out: %Control): 92%; remaining binding at 1 µM ([10]; read-out: %Control @1000nM): 92%; difference in %Control versus compound Ib at 1 µM ([4]; @1000nM): 41%; %Control difference from compound Ib at 1 µM ([5]; @1000nM): -9%; difference in %Control from compound Ib at 1 µM ([6]; @1000nM): 47%; % difference (compound - Ib %Control) [8]: 28% |
| 100 | 100 | 100 | 100 | 87 | 87 | 48 | 48 | 98 | 98 | 93 | 93 | 70 | 70 | 0 | 12 | 77 | 77 | CCOC(=O)c1cnc(S(C)(=O)=O)nc1N1CCC[C@@H](n2nc(-c3ccc(Oc4ccccc4)cc3)c3c(N)ncnc32)C1 [Compound 8c, Ethyl (R)-4-(3-(4-Amino-3-(4-phenoxyphenyl)-1H-pyrazolo[3,4-d]pyrimidin-1-yl)piperidin-1-yl)-2-(methylsulfonyl)pyrimidine-5-carboxylate] | 100 | 100 | difference in %Control versus reference Ib at 1 µM ([10]; @1000nM): -2%; remaining binding at 1 µM ([10]; @1000nM, read-out: %Control): 92%; remaining binding at 1 µM ([10]; read-out: %Control @1000nM): 92%; difference in %Control versus compound Ib at 1 µM ([4]; @1000nM): 48%; %Control difference from compound Ib at 1 µM ([5]; @1000nM): -2%; difference in %Control from compound Ib at 1 µM ([6]; @1000nM): 60%; % difference (compound - Ib %Control) [8]: 28% |

Second part, the compound before the results:

| Structure (SMILES) | remaining binding at 1 µM ([1]; @1000nM, read-out: %Control) [%] | remaining binding at 1 µM ([1]; read-out: %Control @1000nM) [%] | remaining binding at 1 µM ([2]; @1000nM, read-out: %Control) [%] | remaining binding at 1 µM ([2]; read-out: %Control @1000nM) [%] | remaining binding at 1 µM ([3]; @1000nM, read-out: %Control) [%] | remaining binding at 1 µM ([3]; read-out: %Control @1000nM) [%] | remaining binding at 1 µM ([4]; @1000nM, read-out: %Control) [%] | remaining binding at 1 µM ([4]; read-out: %Control @1000nM) [%] | remaining binding at 1 µM ([5]; @1000nM, read-out: %Control) [%] | remaining binding at 1 µM ([5]; read-out: %Control @1000nM) [%] | remaining binding at 1 µM ([6]; @1000nM, read-out: %Control) [%] | remaining binding at 1 µM ([6]; read-out: %Control @1000nM) [%] | remaining binding at 1 µM ([7]; @1000nM, read-out: %Control) [%] | remaining binding at 1 µM ([7]; read-out: %Control @1000nM) [%] | difference in %Control versus compound Ib at 1 µM ([2]; @1000nM) [%] | difference in %Control from compound Ib at 1 µM ([9]; @1000nM) [%] | remaining binding at 1 µM ([9]; @1000nM, read-out: %Control) [%] | remaining binding at 1 µM ([9]; read-out: %Control @1000nM) [%] | %Control @1000nM [8] [%] | %Control [8] [%] | other results |
| --- | --- | --- | --- | --- | --- | --- | --- | --- | --- | --- | --- | --- | --- | --- | --- | --- | --- | --- | --- | --- | --- |
| C=CC(=O)N1CCC[C@@H](n2nc(-c3ccc(Oc4ccccc4)cc3)c3c(N)ncnc32)C1 [Compound 1g, Ibrutinib, reference compound] | 100 | 100 | 100 | 100 | 25 | 25 | 0 | 0 | 100 | 100 | 33 | 33 | 27 | 27 | – | – | – | – | 72 | 72 | inhibition at 1 µM ([4]; ScanTK, 1 μM): > 99% |
| Cc1cnc(S(C)(=O)=O)nc1N1CCCC(n2nc(-c3ccc(Oc4ccccc4)cc3)c3c(N)ncnc32)C1 (centres unmarked) [Compound 8a, 1-(1-(5-Methyl-2-(methylsulfonyl)pyrimidin-4-yl)piperidin-3-yl)-3-(4-phenoxyphenyl)-1H-pyrazolo[3,4-d]pyrimidin-4-amine] | 93 | 93 | 95 | 95 | 27 | 27 | 53 | 53 | 84 | 84 | 54 | 54 | 37 | 37 | -5 | 0 | 65 | 65 | 91 | 91 | difference in %Control versus reference Ib at 1 µM ([10]; @1000nM): 4%; remaining binding at 1 µM ([10]; @1000nM, read-out: %Control): 98%; remaining binding at 1 µM ([10]; read-out: %Control @1000nM): 98%; difference in %Control versus compound Ib at 1 µM ([4]; @1000nM): 53%; %Control difference from compound Ib at 1 µM ([5]; @1000nM): -16%; difference in %Control from compound Ib at 1 µM ([6]; @1000nM): 21%; % difference (compound - Ib %Control) [8]: 19% |
| CNC(=O)c1cnc(S(C)(=O)=O)nc1N1CCCC(n2nc(-c3ccc(Oc4ccccc4)cc3)c3c(N)ncnc32)C1 (centres unmarked) [Compound 8d, 4-(3-(4-Amino-3-(4-phenoxyphenyl)-1H-pyrazolo[3,4-d]pyrimidin-1-yl)piperidin-1-yl)-N-methyl-2-(methylsulfonyl)pyrimidine-5-carboxamide] | 100 | 100 | 100 | 100 | 77 | 77 | 5.5 | 5.5 | 99 | 99 | 65 | 65 | 60 | 60 | 0 | 9 | 74 | 74 | 94 | 94 | difference in %Control versus reference Ib at 1 µM ([10]; @1000nM): -1%; remaining binding at 1 µM ([10]; @1000nM, read-out: %Control): 93%; remaining binding at 1 µM ([10]; read-out: %Control @1000nM): 93%; difference in %Control versus compound Ib at 1 µM ([4]; @1000nM): 5.5%; %Control difference from compound Ib at 1 µM ([5]; @1000nM): -1%; difference in %Control from compound Ib at 1 µM ([6]; @1000nM): 32%; % difference (compound - Ib %Control) [8]: 22% |
